ChEMBL document CHEMBL1137069, “Design, synthesis and anti-microbial activity of 1H-pyrazole carboxylates” (2004)
Several values for one entry are separate records, joined by “and”; a condition that tells them apart may be missing. Identical values can stand only once.

Columns and labels:
Format in all cases: functional
[1] = Antifungal activity against Bipolaris oryzae was measured as mycelial growth at 0.1 mg/mL concentration
[2] = Antifungal activity against Bipolaris oryzae was measured as mycelial growth at 0.5 mg/mL concentration
[3] = test system: Curvularia lunata; assay: Antifungal activity against Curvularia lunata was measured as mycelial growth at 0.1 mg/mL concentration
[4] = test system: Curvularia lunata; assay: Antifungal activity against Curvularia lunata was measured as mycelial growth at 0.5 mg/mL concentration
[5] = test system: Fusarium oxysporum; assay: Antifungal activity against Fusarium oxysporum was measured as mycelial growth at 0.1 mg/mL concentration
[6] = test system: Enterococcus faecalis; assay: Antibacterial activity against […] was measured as area of inhibition zone at 0.1 mg/mL concentration
[7] = test system: Staphylococcus aureus; assay: Antibacterial activity against Staphylococcus aureus was measured as area of inhibition zone at 0.1 mg/mL concentration; settings: for zone of inhibition at 100 µg/mL: Staphylococcus aureus
[8] = test system: Pseudomonas aeruginosa; assay: Antibacterial activity against Pseudomonas aeruginosa was measured as area of inhibition zone at 0.1 mg/mL concentration; settings: Pseudomonas aeruginosa
[9] = test system: Fusarium oxysporum; assay: Antifungal activity against Fusarium oxysporum was measured as mycelial growth at 0.5 mg/mL concentration
[10] = test system: Thanatephorus cucumeris; assay: Antifungal activity against Rhizoctonia solani was measured as mycelial growth at 0.1 mg/mL concentration
[11] = test system: Thanatephorus cucumeris; assay: Antifungal activity against Rhizoctonia solani was measured as mycelial growth at 0.5 mg/mL concentration
[12] = test system: Alternaria alternata; assay: Antifungal activity against Alternaria alternata was measured as mycelial growth at 0.1 mg/mL concentration
[13] = test system: Alternaria alternata; assay: Antifungal activity against Alternaria alternata was measured as mycelial growth at 0.5 mg/mL concentration
[14] = Antifungal activity against Bipolaris oryzae was determined at 0.1 mg/mL concentration
[15] = Antifungal activity against Bipolaris oryzae was determined at 0.5 mg/mL concentration
[16] = test system: Curvularia lunata; assay: Antifungal activity against Curvularia lunata was determined at 0.1 mg/mL concentration
[17] = test system: Curvularia lunata; assay: Antifungal activity against Curvularia lunata was determined at 0.5 mg/mL concentration
[18] = test system: Fusarium oxysporum; assay: Antifungal activity against Fusarium oxysporum was determined at 0.1 mg/mL concentration
[19] = test system: Fusarium oxysporum; assay: Antifungal activity against Fusarium oxysporum was determined at 0.5 mg/mL concentration
[20] = test system: Thanatephorus cucumeris; assay: Antifungal activity against Rhizoctonia solani was determined at 0.1 mg/mL concentration
[21] = test system: Thanatephorus cucumeris; assay: Antifungal activity against Rhizoctonia solani was determined at 0.5 mg/mL concentration
[22] = test system: Escherichia coli; assay: Antibacterial activity against Escherichia coli was determined at 0.1 mg/mL concentration
[23] = test system: Escherichia coli; assay: Antibacterial activity against Escherichia coli was determined at 0.5 mg/mL concentration
[24] = test system: Pseudomonas aeruginosa; assay: Antibacterial activity against Pseudomonas aeruginosa was determined at 0.1 mg/mL concentration
[25] = test system: Enterococcus faecalis; assay: Antibacterial activity against […] was determined at 0.1 mg/mL concentration
[26] = test system: Enterococcus faecalis; assay: Antibacterial activity against […] was determined at 0.5 mg/mL concentration
[27] = test system: Staphylococcus aureus; assay: Antibacterial activity against Staphylococcus aureus was determined at 0.1 mg/mL concentration
[28] = test system: Staphylococcus aureus; assay: Antibacterial activity against Staphylococcus aureus was determined at 0.5 mg/mL concentration
[29] = test system: Pseudomonas aeruginosa; assay: Antibacterial activity against Pseudomonas aeruginosa was determined at 0.5 mg/mL concentration
[30] = test system: Alternaria alternata; assay: Antifungal activity against Alternaria alternata was determined at 0.1 mg/mL concentration
[31] = test system: Alternaria alternata; assay: Antifungal activity against Alternaria alternata was determined at 0.5 mg/mL concentration
[32] = Antibacterial activity against Escherichia coli was measured as area of inhibition zone at 0.1 mg/mL concentration

## CCOC(=O)c1cn(-c2ccc([N+](=O)[O-])cc2[N+](=O)[O-])nc1-c1ccc(Cl)cc1
[1]
  Mycelial growth: 6.6 cm
[2]
  Mycelial growth: 3.9 cm
[3]
  Mycelial growth: 5.8 cm
[4]
  Mycelial growth: 4.8 cm
[5]
  Mycelial growth: 6.3 cm
[6]
  zone of inhibition at 100 µg/mL: 49 mm
[7]
  Inhibition Zone: 3.3 cm and 1.6 cm
[8]
  zone of inhibition at 100 µg/mL: 0 mm
[9]
  Mycelial growth: 4 cm
[10]
  Mycelial growth: 9 cm
[11]
  Mycelial growth: 7.2 cm
[12]
  Mycelial growth: 5.4 cm
[13]
  Mycelial growth: 4.2 cm
[14]
  inhibition at 100 µg/mL: 26.7%
[15]
  inhibition at 500 µg/mL: 56.7%
[16]
  inhibition at 100 µg/mL: 35.6%
[17]
  inhibition at 500 µg/mL: 46.7%
[18]
  inhibition at 100 µg/mL: 30%
[19]
  inhibition at 500 µg/mL: 55.6%
[20]
  inhibition at 100 µg/mL: 0%
[21]
  inhibition at 500 µg/mL: 20%
[22]
  inhibition at 100 µg/mL: 0%
[23]
  inhibition at 500 µg/mL: 52.2%
[24]
  inhibition at 100 µg/mL: 0%
[25]
  inhibition at 100 µg/mL: 0%
[26]
  inhibition at 500 µg/mL: 54.4%
[27]
  inhibition at 100 µg/mL: 17.8%
[28]
  inhibition at 500 µg/mL: 36.7%
[29]
  inhibition at 500 µg/mL: 0%
[30]
  inhibition at 100 µg/mL: 40%
[31]
  inhibition at 500 µg/mL: 53.3%

## CCOC(=O)c1cn(-c2ccc([N+](=O)[O-])cc2[N+](=O)[O-])nc1CCl
[1]
  Mycelial growth: 5.9 cm
[2]
  Mycelial growth: 4.6 cm
[3]
  Mycelial growth: 6 cm
[4]
  Mycelial growth: 5.1 cm
[5]
  Mycelial growth: 6.8 cm
[6]
  zone of inhibition at 100 µg/mL: 0 mm
[7]
  Inhibition Zone: 8.3 cm
  zone of inhibition at 100 µg/mL: 69 mm
[8]
  zone of inhibition at 100 µg/mL: 0 mm
[9]
  Mycelial growth: 4.6 cm
[10]
  Mycelial growth: 9 cm
[11]
  Mycelial growth: 8.5 cm
[12]
  Mycelial growth: 6 cm
[13]
  Mycelial growth: 4.8 cm
[14]
  inhibition at 100 µg/mL: 34.4%
[15]
  inhibition at 500 µg/mL: 48.9%
[16]
  inhibition at 100 µg/mL: 33.3%
[17]
  inhibition at 500 µg/mL: 43.3%
[18]
  inhibition at 100 µg/mL: 24.4%
[19]
  inhibition at 500 µg/mL: 48.9%
[20]
  inhibition at 100 µg/mL: 0%
[21]
  inhibition at 500 µg/mL: 5.6%
[22]
  inhibition at 100 µg/mL: 17.8%
[23]
  inhibition at 500 µg/mL: 51.1%
[24]
  inhibition at 100 µg/mL: 0%
[25]
  inhibition at 100 µg/mL: 0%
[26]
  inhibition at 500 µg/mL: 0%
[27]
  inhibition at 100 µg/mL: 76.6%
[28]
  inhibition at 500 µg/mL: 92.2%
[29]
  inhibition at 500 µg/mL: 0%
[30]
  inhibition at 100 µg/mL: 33.3%
[31]
  inhibition at 500 µg/mL: 46.7%

## Cc1nn(-c2ccc([N+](=O)[O-])cc2[N+](=O)[O-])cc1C(=O)OC(C)(C)C
[1]
  Mycelial growth: 5.5 cm
[2]
  Mycelial growth: 4.3 cm
[3]
  Mycelial growth: 6.7 cm
[4]
  Mycelial growth: 5.4 cm
[5]
  Mycelial growth: 7.8 cm
[6]
  zone of inhibition at 100 µg/mL: 48 mm
[7]
  Inhibition Zone: 7.3 cm
  zone of inhibition at 100 µg/mL: 84 mm
[8]
  zone of inhibition at 100 µg/mL: 0 mm
[9]
  Mycelial growth: 5.7 cm
[10]
  Mycelial growth: 9 cm
[11]
  Mycelial growth: 8.5 cm
[12]
  Mycelial growth: 6.2 cm
[13]
  Mycelial growth: 5.1 cm
[14]
  inhibition at 100 µg/mL: 38.9%
[15]
  inhibition at 500 µg/mL: 52.2%
[16]
  inhibition at 100 µg/mL: 25.6%
[17]
  inhibition at 500 µg/mL: 40%
[18]
  inhibition at 100 µg/mL: 13.3%
[19]
  inhibition at 500 µg/mL: 36.7%
[20]
  inhibition at 100 µg/mL: 0%
[21]
  inhibition at 500 µg/mL: 5.6%
[22]
  inhibition at 100 µg/mL: 16.7%
[23]
  inhibition at 500 µg/mL: 52.2%
[24]
  inhibition at 100 µg/mL: 0%
[25]
  inhibition at 100 µg/mL: 21.1%
[26]
  inhibition at 500 µg/mL: 53.3%
[27]
  inhibition at 100 µg/mL: 81.1%
[28]
  inhibition at 500 µg/mL: 93.3%
[29]
  inhibition at 500 µg/mL: 0%
[30]
  inhibition at 100 µg/mL: 31.1%
[31]
  inhibition at 500 µg/mL: 43.3%

## CCOC(=O)c1nn(-c2ccc([N+](=O)[O-])cc2[N+](=O)[O-])cc1C=O
[1]
  Mycelial growth: 3.5 cm
[2]
  Mycelial growth: 2.3 cm
[3]
  Mycelial growth: 5.6 cm
[4]
  Mycelial growth: 3.5 cm
[5]
  Mycelial growth: 4.3 cm
[32]
  Inhibition Zone: 7.5 cm and 8.8 cm
[32]; Escherichia coli
  zone of inhibition at 100 µg/mL: 73 mm
[6]
  zone of inhibition at 100 µg/mL: 86 mm
[7]
  Inhibition Zone: 7.7 cm
  zone of inhibition at 100 µg/mL: 88 mm
[9]
  Mycelial growth: 2.6 cm
[10]
  Mycelial growth: 6.8 cm
[11]
  Mycelial growth: 4.2 cm
[12]
  Mycelial growth: 3.8 cm
[13]
  Mycelial growth: 2.1 cm
[14]
  inhibition at 100 µg/mL: 61.1%
[15]
  inhibition at 500 µg/mL: 74.4%
[16]
  inhibition at 100 µg/mL: 37.8%
[17]
  inhibition at 500 µg/mL: 61.1%
[18]
  inhibition at 100 µg/mL: 52.2%
[19]
  inhibition at 500 µg/mL: 71.1%
[20]
  inhibition at 100 µg/mL: 24.4%
[21]
  inhibition at 500 µg/mL: 53.3%
[22]
  inhibition at 100 µg/mL: 81.1%
[23]
  inhibition at 500 µg/mL: 97.8%
[24]
  inhibition at 100 µg/mL: 0%
[25]
  inhibition at 100 µg/mL: 83.3%
[26]
  inhibition at 500 µg/mL: 95.6%
[27]
  inhibition at 100 µg/mL: 85.6%
[28]
  inhibition at 500 µg/mL: 97.8%
[29]
  inhibition at 500 µg/mL: 25.6%
[30]
  inhibition at 100 µg/mL: 57.8%
[31]
  inhibition at 500 µg/mL: 76.6%
